Results taken from patent US20240285616A1, “THERAPEUTIC TREATMENT OF CHROMATINOPATHIES” (UNIVERSITA' DEGLI STUDI DI TRENTO, priority 2020, published 2024).
Like-named read-outs stand apart in the source and are kept apart here.

Legend:
MLL4^Q4092X MSCs [1] = assay: Nuclear morphology, chromatin compaction and Lamin A/C after HDAC inhibitor treatment; assay type: cell-based, human
Procedure: (§1) For immunofluorescence assays, cells were seeded on coverslips coated with 0.1% gelatin (Sigma Aldrich #G1393). When needed, cells where fixed with 4% paraformaldeide for […] at 4° C. Coverslips were processed as described: permeabilization and blocking with PBS/1% BSA/5% goat serum/0.5% Triton X-100 (blocking solution) for 1 hour at room temperature, followed by incubation with primary antibody (diluted in the blocking solution) for 2 hours at RT (or overnight at 4° C., depending on the used primary antibody), 3-5 washes in PBS and incubation with secondary antibodies (diluted in the blocking solution), DRAQ5 for nuclear staining and phalloidin-TRITC for 1 h at room temperature. Images were acquired using a Leica TCS SP5 confocal microscope with HCX PL APO 63×/1.40 objective. Confocal z stacks were acquired with sections of 0.5 μm. In cases where image analysis was performed, image acquisition settings were kept constant.
Confocal imaging data analyses were performed using Image J software. For 2D/3D analysis RDAQ5 DNA dye was used to identify the nucleus and define the ROI. Then the fluorescence intensity and physical parameters were determined. For the measure of volume and flatness the inventors performed a 3D analyses using the “3D plugin 596 suite”, an Image J plugin.

MLL4^Q4092X MSCs [2] = assay: H3K27me3 level and PcG condensate clustering after HDAC inhibitor treatment; assay type: cell-based, human
Procedure: as §1
In order to automatically detect and quantify PcG and TrxG complex proteins in fluorescence cell image z-stacks, the inventors developed an algorithm that implements a method derived from (Gregoretti et al., 2016) with variants and adaptations. The algorithm performs the 2D segmentation of cell nuclei and the detection of Protein Bodies (PBs) for each slice of the stack, followed by the 3D reconstruction and identification of nuclei and PBs. […]

Kmt2d morphants = assay type: in vivo; conditions: Kmt2d morphant medaka embryos grown in 0.15 μM VE822
Procedure: (§2) The Cab-strain of wt medaka fish (Oryzias latipes) was maintained following standard conditions (i.e., 12 h/12 h dark/light conditions at 27° C.). Embryos were staged according to the method proposed by Iwamatsu. All studies on fish were conducted in strict accordance with the institutional guidelines for animal research and approved by the Italian Ministry of Health: Department of Public Health, Animal Health, Nutrition, and Food Safety.
(§3) The available medaka olKmt2d (ENSORLT00000009505.1) genomic sequences were retrieved from a public database (UCSC Genome Browser, http://genome.ucsc.edu/) from human KMT2D (NM_003482.3) transcript. A morpholino (Mo: Gene Tools LLC, Oregon, USA) was designed against the ATG initiation codon within the 5′ untranslated region of the medaka ortholog of the (MO-Kmt2d: 5′-[…]-3′) of the medaka orthologous of the KMT2D gene. The specificity and inhibitory efficiencies of morpholino was determined as previously described (Conte et al., 2015). MO-Kmt2d was injected at 0.015 mM concentration into one blastomere at the one/two-cell stage. Off-target effects of the morpholino injections were excluded by repeated experiments with control morpholino or by co-injection with a p53 morpholino. For the drug treatment, chorions from injected and control embryos were removed with the hatching enzyme at St32. […]

MLL4^Q4092X MSCs [3] = assay: Nuclear to cytosolic localization of YAP/TAZ by immunofluorescence; assay type: cell-based, human; conditions: sparse condition
Procedure: Cell lines used in this study include NIH 3T3 (ATCC), HEK293T (ATCC), human primary fibroblasts derived from either healthy of Kabuki patients (Genomic and Genetic Disorders Biobank) and hTERT-immortalized human adipose-derived MSCs. Primary fibroblasts, NIH3T3 and HEK293T were maintained at 37° C. and 5% CO2 in DMEM medium supplemented with 10% Fetal Bovine Serum (Euroclone #ECS0180L), while MSCs were cultured in 1:1 DMEM/F-12 medium (Gibco #11320-074) supplemented with 10% Fetal Bovine Serum (Euroclone #ECS0180L).
For immunofluorescence assays, cells were seeded on coverslips coated with 0.1% gelatin (Sigma Aldrich #G1393). When needed, cells where fixed with 4% paraformaldeide for minutes at 4° C. […]
To quantify the nuclear to cytosolic localization of YAP-TAZ, the inventors adapted previously published MATLAB routines (Zambrano et al., 2016). […]
To estimate the average cytosolic intensity per cell, a ring of 30 pixels width (approximately 7 microns) around each segmented nuclei was found. […] The inventors then calculated for each cell the Nuclear to Cytosolic Intensity (NCI) as the ratio of the background corrected nuclear and cytosolic average YAP-TAZ intensity.

MLL4^Q4092X MSCs [4] = assay: Gene expression profiling (RNA-seq) of MSCs after VE-822 treatment; assay type: cell-based, human; conditions: 8 and 24 hours after ATR inhibition
Procedure: WT and MLL^4Q4092X MSCs were seeded as sparse (5000 cells/cm^2) condition and collected 48 h after plating, either untreated or at 8 and 24 hours after ATR inhibition (VE-822 treatment) (medchem express #HY-13902/cs-1861). Cells were directly lysed on plates with TRIzol (Thermo Fisher cat. #15596026), and total RNAs were extracted according to the manufacturer's instructions.
Contaminating genomic DNA was removed by DNase (Qiagen 843 cat. #79254) digestion. RNA quality and concentration were assessed using the 2100 Bioanalyzer (Agilent cat. #G2939BA) and the Qubit fluorometer (Thermo Fisher cat. #Q33226), respectively. 3′-RNA-seq libraries were prepared by using the QuantSeq 3′ mRNA-Seq Library Prep Kit FWD for Illumina (Lexogen cat. #015.24) and starting from 500 ng of total RNA. Libraries were sequenced as single reads of 50 bp with the Illumina HiSeq2500. Three independent biological replicates were performed for each cell line and time point and sequenced as independent libraries.
Raw reads from fastq files were first checked for their quality using FastQC and trimmed using Trimmomatic (Bolger et al., 2014). Trimmed reads were aligned to the reference human genome assembly hg38/GRCh38 using STAR with default parameters. […] For annotation of the reads to the genome, HOMER was employed with the following command ‘analyzeRepeats.pl rna hg38-count 3utr-rpkm’. […]

MLL4^Q4092X MSCs [5] = assay: DNA damage response in MSCs after ATR inhibition (immunofluorescence); assay type: cell-based, human; conditions: MLL4^Q4092X MSCs treated with ATR inhibitor
Procedure: as §1

MLL4^Q4092X MSCs [6] = assay: Chondrocyte micromass differentiation of MSCs (Alcian blue); assay type: cell-based, human; conditions: in vitro
Procedure: For chondrocyte micromass culture, a cell solution of 1.6× 10^7 viable cells/mL was produced. Micromass cultures were generated by seeding 5-μL droplets of cell solution. After cultivating micromass cultures for 2 hours under high humidity conditions, MSCs medium was added. The day after, the medium was changed with chondrogenesis medium (Gibco #A10069-01) supplemented with Stem-Pro Chondrogenesis supplement (Gibco #10064-01). For complete differentiation, cells were maintained in culture for three weeks changing media regularly.
To detect chondrogenesis, cells were washed with PBS and fixed in 4% formaldehyde for 1 hr at RT and then washed with PBS. Cells were incubated with Alcian blue solution (1 g/L in 0.1 M HCl, Sigma-Aldrich #B8438) for 6 hrs at room temperature and then extensively washed with PBS. To measure Alcian blue deposition, dry wells were incubated with 1 mL of 6 N Guanidine HCl for 1 hour and then the absorbance was measured with a spectofotometer measured between 600 and 650 nm.

olKmt2d = assay: Kmt2d morpholino injection in medaka embryos (in vivo model for KS); design: species or system Oryzias latipes; conditions: MO-Kmt2d injected at 0.015 mM, of 1,600 injected embryos, later developmental stages
Procedure: as §2, §3

## CC(/C=C/C(=O)NO)=C\[C@@H](C)C(=O)c1ccc(N(C)C)cc1 [TSA]
MLL4^Q4092X MSCs [1]
  chromatin organization and nuclear architecture: rescued the altered chromatin organization and nuclear architecture
  nuclear morphology and structure (relative abundance of Lamin A/C): sufficient to re-establish proper nuclear morphology and structure
MLL4^Q4092X MSCs [2]
  H3K27me3 level: reduced
  clustering of PcG condensates: reduced

## CNCc1ccc(-c2cc(-c3nc(-c4ccc(S(=O)(=O)C(C)C)cc4)cnc3N)on2)cc1 [VE-822, BERZOSERTIB]
Kmt2d morphants; listed as ATR inhibitor
  chondrogenic and skeleton defects, head morphogenesis: sufficient to restore the chondrogenic and skeleton defects
Kmt2d morphants; listed as VX-970
  chondrogenic and skeleton defects, head morphogenesis: sufficient to completely recover the chondrogenic and osteogenic defects
MLL4^Q4092X MSCs [3]
  YAP/TAZ nuclear localization (mechanical properties of MSCs): restored YAP/TAZ nuclear localization
MLL4^Q4092X MSCs [3]; listed as VX-970
  YAP/TAZ nuclear localization (mechanical properties of MSCs): sufficient to restore the mechanical properties
MLL4^Q4092X MSCs [4]
  expression of a subset of ATR responsive genes (architectural chromatin genes): rescued
MLL4^Q4092X MSCs [5]
  DNA damage response: without affecting DNA damage response
MLL4^Q4092X MSCs [6]; listed as ATR inhibitor
  chondrogenic differentiation potential: partially rescued
MLL4^Q4092X MSCs [6]; listed as VX-970
  chondrogenic differentiation potential: sufficient to abolish the differentiation defects

## MO-Kmt2d: morpholino against the ATG initiation codon of medaka Kmt2d, 5′-CCCTGCTGCTGCTTTGATCTTTTTG-3′ (all phosphorodiamidate morpholino (PMO))
olKmt2d
  embryos with morphological cranio-facial anomalies: 73±5%
